Data taken from paper PMC3447535 (Neuropharmacology, 2012).

Legend:
[1] = test system: 6X-CRE-β-galactosidase CREB reporter gene in PC12 cells; test: CREB reporter gene assay; assay type: cell-based; settings: for effect on forskolin induction of the CREB reporter gene: in the presence of forskolin (10 μM), 4 hr, library compounds 20 μM
[2] = test system: acetylated histone H3, H4, H2A, H2B in cultured primary mouse neurons; test: Western blotting of neuronal histone acetylation; assay type: cell-based; settings: 1 μM, 24 hrs
[3] = Crebinostat concentration in brain and plasma; assay type: in vivo, mouse; settings: single IP dose 25 mg/kg
C57BL/6J mice = test: Open field locomotion prior to footshock; assay type: in vivo, mouse; settings: 25 mg/kg IP daily, 10 days
[4] = test system: hippocampal acetylation of H4K12 and H3K9; test: Western blot of hippocampal histone acetylation after IP injection; assay type: in vivo, mouse; settings: one hour after IP injection
[5] = test system: Egr1-EGFP reporter gene in primary cultured cortical neurons; test: Egr1 reporter gene assay; assay type: cell-based, mouse; settings: 24 hour treatments
[6] = test system: mouse forebrain primary cultured neurons; test: Transcriptome profiling; assay type: cell-based; settings: 1 μM, 24 hrs
[7] = test system: mouse forebrain primary cultured neurons; test: Quantitative RT-PCR assays of gene expression; assay type: cell-based; settings: 1 μM
[8] = test system: Homer1 expression in cortical neurons; test: NanoString nCounter gene expression assay; assay type: cell-based, mouse; settings: crebinostat 1 μM 24 hours, BDNF 20 ng/ml last 6 hours
[9] = test system: mouse primary forebrain cultures; test: Synapsin I punctae imaging along Map2-positive dendrites; assay type: cell-based; settings: 1 μM, 24 hr
[10] = test system: mouse primary forebrain cultures; test: Toxicity in primary neuronal cultures on coverslips; assay type: cell-based; settings: 1 μM, 24 hrs
[11] = test system: AcH4K12 in mouse primary forebrain cultures; test: High resolution neuronal histone acetylation imaging; assay type: cell-based; settings: 1 μM, 24 hrs
recombinant HDAC1 [12] = target: T1, recombinant HDAC1 (Homo sapiens, UniProt Q13547); settings: more potent than SAHA
T1 sequence (Q13547 whole entry): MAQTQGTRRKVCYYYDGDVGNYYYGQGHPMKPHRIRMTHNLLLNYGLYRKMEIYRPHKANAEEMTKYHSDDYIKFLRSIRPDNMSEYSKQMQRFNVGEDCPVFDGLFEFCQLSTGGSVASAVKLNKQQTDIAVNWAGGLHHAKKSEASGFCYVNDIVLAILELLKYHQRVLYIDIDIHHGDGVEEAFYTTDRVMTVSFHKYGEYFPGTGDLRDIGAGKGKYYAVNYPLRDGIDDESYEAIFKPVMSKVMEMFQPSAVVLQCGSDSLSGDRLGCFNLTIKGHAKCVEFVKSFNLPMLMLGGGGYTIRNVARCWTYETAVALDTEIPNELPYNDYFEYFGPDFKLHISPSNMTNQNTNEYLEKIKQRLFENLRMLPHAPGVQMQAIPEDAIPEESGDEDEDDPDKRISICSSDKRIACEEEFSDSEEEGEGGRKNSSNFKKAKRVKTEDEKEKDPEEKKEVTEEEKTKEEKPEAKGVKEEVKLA

recombinant HDAC1 [13] = target: T1, recombinant HDAC1; test: biochemical
recombinant HDAC2 = recombinant HDAC2 (Homo sapiens, UniProt Q92769); test: In vitro HDAC enzymatic assay, HDAC2
recombinant HDAC2, sequence (Q92769 whole entry): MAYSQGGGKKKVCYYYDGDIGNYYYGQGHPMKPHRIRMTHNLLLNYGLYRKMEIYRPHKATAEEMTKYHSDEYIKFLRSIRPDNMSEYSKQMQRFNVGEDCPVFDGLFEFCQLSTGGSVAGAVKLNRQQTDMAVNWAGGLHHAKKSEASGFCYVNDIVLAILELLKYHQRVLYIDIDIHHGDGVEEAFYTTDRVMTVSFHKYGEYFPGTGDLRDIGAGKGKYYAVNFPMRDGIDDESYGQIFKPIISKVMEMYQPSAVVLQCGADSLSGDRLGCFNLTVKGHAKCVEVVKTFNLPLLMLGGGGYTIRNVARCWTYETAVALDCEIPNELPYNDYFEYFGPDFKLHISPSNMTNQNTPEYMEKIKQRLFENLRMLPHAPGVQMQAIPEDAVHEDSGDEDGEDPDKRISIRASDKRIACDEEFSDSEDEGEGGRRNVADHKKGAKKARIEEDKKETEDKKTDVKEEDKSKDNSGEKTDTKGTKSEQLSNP

recombinant HDAC3 = recombinant HDAC3 (Homo sapiens, UniProt O15379); test: In vitro HDAC enzymatic assay, HDAC3
recombinant HDAC3, sequence (O15379 whole entry): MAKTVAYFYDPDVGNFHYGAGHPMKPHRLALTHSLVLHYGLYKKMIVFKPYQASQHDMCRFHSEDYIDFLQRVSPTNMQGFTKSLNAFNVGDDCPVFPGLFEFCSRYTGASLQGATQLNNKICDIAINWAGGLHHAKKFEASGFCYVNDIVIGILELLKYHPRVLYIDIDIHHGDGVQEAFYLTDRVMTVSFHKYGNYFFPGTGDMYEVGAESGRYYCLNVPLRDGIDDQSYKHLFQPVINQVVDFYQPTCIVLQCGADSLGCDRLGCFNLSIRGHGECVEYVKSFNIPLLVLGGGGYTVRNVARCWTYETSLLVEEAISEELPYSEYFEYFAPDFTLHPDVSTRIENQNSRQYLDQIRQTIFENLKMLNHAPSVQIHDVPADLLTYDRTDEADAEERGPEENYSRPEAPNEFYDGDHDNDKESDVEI
recombinant HDAC3, sequence (Q9Y618 395-489 partner limits assumed): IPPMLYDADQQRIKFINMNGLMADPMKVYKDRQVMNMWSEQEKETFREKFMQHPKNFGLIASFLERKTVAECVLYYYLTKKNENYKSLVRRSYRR

recombinant HDAC4 = recombinant HDAC4 (Homo sapiens, UniProt P56524); test: In vitro HDAC enzymatic assay, HDAC4; settings: read-out: IC50 for inhibition of enzymatic activity of HDAC4; Class IIa
recombinant HDAC4, sequence (P56524 whole entry): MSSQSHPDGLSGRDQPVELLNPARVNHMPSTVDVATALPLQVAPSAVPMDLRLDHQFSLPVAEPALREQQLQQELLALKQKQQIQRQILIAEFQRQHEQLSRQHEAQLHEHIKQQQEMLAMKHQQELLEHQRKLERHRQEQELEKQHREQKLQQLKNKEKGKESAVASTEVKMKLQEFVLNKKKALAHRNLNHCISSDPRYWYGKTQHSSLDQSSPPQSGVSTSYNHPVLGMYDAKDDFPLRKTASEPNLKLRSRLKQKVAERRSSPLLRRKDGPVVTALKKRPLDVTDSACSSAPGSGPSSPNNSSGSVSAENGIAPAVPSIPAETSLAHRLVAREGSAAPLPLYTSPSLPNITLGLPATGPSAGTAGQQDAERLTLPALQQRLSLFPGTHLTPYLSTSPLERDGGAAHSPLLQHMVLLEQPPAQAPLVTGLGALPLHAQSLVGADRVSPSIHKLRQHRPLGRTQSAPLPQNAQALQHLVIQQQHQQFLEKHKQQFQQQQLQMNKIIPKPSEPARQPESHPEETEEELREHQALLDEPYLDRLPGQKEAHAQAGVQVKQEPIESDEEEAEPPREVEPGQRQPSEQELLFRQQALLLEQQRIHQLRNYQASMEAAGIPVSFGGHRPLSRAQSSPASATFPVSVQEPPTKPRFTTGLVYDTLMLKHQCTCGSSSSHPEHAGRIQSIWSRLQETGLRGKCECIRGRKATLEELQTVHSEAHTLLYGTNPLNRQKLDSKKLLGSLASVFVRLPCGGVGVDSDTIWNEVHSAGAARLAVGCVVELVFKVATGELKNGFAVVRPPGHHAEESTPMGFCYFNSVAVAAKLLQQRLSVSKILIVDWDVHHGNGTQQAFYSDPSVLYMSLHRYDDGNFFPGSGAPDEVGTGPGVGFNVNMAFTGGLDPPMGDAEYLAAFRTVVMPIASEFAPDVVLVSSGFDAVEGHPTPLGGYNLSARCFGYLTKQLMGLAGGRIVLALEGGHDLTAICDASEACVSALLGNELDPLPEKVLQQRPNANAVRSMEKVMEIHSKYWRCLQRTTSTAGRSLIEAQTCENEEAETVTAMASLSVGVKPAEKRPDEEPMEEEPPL

recombinant HDAC5 = recombinant HDAC5 (Homo sapiens, UniProt Q9UQL6); test: In vitro HDAC enzymatic assay, HDAC5; settings: read-out: IC50 for inhibition of enzymatic activity of HDAC5; Class IIa
recombinant HDAC5, sequence (Q9UQL6 whole entry): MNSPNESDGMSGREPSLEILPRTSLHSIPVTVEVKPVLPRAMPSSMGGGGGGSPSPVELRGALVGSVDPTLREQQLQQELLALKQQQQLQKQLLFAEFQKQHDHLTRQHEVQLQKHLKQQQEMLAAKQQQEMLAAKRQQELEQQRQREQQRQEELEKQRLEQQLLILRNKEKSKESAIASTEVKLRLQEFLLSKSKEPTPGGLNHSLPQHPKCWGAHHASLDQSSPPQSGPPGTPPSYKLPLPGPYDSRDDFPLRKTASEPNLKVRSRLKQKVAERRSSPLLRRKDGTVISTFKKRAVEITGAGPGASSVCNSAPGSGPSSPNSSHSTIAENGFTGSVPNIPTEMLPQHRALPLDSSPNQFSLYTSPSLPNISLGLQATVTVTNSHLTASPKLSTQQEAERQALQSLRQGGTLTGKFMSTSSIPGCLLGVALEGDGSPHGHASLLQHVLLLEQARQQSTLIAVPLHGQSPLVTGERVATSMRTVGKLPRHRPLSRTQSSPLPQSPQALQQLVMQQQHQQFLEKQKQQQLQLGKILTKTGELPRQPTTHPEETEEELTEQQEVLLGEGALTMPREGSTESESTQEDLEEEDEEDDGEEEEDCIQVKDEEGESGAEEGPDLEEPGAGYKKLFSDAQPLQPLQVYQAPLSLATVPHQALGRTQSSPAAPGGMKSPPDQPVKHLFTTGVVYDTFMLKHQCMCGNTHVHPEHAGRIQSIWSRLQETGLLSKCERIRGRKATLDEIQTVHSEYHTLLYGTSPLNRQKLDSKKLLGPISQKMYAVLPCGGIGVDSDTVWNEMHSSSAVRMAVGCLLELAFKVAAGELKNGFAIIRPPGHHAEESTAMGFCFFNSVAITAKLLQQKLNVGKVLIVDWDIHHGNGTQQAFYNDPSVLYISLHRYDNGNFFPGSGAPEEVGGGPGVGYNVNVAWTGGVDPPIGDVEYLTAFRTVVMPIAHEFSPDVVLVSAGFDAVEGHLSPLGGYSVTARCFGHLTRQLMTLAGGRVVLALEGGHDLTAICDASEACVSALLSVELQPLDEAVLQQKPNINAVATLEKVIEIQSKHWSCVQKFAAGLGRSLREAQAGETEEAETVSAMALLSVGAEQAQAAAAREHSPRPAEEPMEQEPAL

recombinant HDAC7 = target: T2, recombinant HDAC7 (Homo sapiens, UniProt Q8WUI4); test: In vitro HDAC enzymatic assay, HDAC7; settings: read-out: IC50 for inhibition of enzymatic activity of HDAC7; Class IIa
T2 sequence (Q8WUI4 1-952): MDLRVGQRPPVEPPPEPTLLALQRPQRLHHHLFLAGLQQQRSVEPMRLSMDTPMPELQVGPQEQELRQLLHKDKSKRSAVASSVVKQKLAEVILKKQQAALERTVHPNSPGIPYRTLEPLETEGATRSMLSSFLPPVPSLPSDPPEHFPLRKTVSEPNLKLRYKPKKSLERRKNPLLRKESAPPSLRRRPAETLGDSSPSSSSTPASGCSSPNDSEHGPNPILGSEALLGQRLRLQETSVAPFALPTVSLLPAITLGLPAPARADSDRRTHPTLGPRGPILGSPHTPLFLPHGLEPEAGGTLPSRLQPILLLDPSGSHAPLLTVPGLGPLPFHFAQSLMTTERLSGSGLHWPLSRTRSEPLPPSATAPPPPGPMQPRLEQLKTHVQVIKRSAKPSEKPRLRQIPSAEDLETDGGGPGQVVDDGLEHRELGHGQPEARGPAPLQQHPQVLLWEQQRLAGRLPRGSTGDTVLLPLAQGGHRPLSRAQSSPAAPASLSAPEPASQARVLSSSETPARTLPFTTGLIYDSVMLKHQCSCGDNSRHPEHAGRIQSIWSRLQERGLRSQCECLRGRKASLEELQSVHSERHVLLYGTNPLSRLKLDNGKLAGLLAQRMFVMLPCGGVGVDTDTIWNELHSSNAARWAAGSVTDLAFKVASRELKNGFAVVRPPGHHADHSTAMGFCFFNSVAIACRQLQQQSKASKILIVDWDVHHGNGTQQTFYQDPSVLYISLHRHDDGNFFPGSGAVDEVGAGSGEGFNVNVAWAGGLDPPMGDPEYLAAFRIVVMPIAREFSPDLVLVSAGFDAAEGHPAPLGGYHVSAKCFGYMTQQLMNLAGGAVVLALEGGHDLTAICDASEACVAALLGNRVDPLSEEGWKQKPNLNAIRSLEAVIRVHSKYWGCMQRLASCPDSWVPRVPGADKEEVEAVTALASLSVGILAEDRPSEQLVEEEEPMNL

recombinant HDAC9 = recombinant HDAC9 (Homo sapiens, UniProt Q9UKV0); test: In vitro HDAC enzymatic assay, HDAC9; settings: read-out: IC50 for inhibition of enzymatic activity of HDAC9; Class IIa
recombinant HDAC9, sequence (Q9UKV0 whole entry): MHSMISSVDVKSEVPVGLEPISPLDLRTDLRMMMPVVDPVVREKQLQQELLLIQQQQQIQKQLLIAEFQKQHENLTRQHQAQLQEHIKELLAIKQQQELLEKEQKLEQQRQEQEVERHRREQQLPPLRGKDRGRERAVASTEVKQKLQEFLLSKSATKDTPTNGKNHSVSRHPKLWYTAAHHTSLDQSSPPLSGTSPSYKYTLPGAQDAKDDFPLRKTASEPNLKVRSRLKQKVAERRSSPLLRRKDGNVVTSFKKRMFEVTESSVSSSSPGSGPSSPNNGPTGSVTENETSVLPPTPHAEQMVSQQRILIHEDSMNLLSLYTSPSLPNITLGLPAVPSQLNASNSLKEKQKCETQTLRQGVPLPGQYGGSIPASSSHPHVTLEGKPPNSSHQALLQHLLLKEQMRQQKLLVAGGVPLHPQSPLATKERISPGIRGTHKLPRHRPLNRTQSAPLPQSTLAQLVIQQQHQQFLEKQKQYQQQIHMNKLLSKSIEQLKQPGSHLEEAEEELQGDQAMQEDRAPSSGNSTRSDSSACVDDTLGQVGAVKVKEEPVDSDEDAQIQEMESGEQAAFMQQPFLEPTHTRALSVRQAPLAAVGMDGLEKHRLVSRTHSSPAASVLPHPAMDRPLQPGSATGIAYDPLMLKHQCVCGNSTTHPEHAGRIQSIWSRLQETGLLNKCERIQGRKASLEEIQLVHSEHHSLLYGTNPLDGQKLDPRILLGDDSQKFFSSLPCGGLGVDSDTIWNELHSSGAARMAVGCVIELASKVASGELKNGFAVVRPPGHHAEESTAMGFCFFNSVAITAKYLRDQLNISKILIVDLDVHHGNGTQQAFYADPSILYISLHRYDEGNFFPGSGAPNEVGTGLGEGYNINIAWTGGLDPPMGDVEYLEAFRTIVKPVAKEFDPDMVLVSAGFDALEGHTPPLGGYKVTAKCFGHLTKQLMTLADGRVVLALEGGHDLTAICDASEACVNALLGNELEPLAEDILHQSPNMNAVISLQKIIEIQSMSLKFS

recombinant HDAC6 = target: T3, recombinant HDAC6 (Homo sapiens, UniProt Q9UBN7); test: In vitro HDAC enzymatic assay, HDAC6
T3 sequence (Q9UBN7 1-1215): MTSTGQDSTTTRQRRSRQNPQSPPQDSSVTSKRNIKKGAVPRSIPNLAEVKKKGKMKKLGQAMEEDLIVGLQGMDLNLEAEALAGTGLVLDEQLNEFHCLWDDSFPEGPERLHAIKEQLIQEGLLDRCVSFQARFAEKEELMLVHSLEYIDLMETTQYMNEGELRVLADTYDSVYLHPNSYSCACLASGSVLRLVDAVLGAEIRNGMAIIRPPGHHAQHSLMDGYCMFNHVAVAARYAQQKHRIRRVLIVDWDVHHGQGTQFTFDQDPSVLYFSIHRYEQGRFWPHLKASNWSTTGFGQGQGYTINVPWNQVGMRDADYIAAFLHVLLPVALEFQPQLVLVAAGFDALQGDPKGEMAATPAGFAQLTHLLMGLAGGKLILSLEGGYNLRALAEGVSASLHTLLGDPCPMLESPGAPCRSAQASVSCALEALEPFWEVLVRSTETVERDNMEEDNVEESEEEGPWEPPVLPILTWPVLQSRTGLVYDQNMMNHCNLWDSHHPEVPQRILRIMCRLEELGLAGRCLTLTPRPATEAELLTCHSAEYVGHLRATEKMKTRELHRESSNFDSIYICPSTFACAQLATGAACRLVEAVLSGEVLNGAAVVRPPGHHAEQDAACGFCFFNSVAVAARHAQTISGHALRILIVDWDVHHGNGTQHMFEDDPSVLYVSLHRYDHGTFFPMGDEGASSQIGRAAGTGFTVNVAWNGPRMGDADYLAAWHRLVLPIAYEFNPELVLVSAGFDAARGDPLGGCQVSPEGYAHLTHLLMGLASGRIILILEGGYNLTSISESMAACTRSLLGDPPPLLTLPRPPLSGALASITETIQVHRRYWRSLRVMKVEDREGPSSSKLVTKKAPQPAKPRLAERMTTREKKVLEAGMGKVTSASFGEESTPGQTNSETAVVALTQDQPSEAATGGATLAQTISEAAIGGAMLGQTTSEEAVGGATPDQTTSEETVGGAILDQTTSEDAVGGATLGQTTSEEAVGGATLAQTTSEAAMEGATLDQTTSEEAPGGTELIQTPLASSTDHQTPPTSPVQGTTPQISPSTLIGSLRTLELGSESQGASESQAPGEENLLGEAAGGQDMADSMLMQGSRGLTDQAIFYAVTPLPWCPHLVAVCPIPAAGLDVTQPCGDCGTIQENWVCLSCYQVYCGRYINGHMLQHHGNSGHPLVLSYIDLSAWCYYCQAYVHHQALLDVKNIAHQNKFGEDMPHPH

[14] = test system: AcH4K12 in mouse primary cultured forebrain neurons; test: Neuronal histone acetylation immunofluorescence assay, AcH4K12; settings: AcH4K12 and AcH3K9; more potent than SAHA
Grn (granulin) = settings: ref Cenik et al., 2011; cited from earlier work

## CC(/C=C/C(=O)NO)=C\[C@@H](C)C(=O)c1ccc(N(C)C)cc1 [trichostatin A]
[1]
  effect on forskolin induction of the CREB reporter gene: further enhanced

## O=C(CCCCCC(=O)NN=Cc1ccc(-c2ccccc2)cc1)NO [crebinostat, 7-(2-([1,1′-biphenyl]-4-ylmethylene)hydrazinyl)-N-hydroxy-7-oxoheptanamide]
[2]
  acetylation of histone H3, H4, H2A and H2B (western blot): strong increases
[3]; C57BL/6, mouse, brain, ip, 25 mg/kg, half-life (T1/2), mouse brain
  half-life: 43.2 min
[3]; mouse
  time of Cmax in brain post-injection: 30 min
C57BL/6J mice
  exploratory activity immediately prior to foot shock versus vehicle: no significant differences
[4]
  total hippocampal acetylation of H4K12 and H3K9: not statistically significant
[1]
  effect on forskolin induction of the CREB reporter gene: strong activation of the reporter only in the presence of forskolin
[5]
  Egr1-EGFP reporter gene activity: induced
[6]
  Fold upregulation (Illumina array) Aldh2: 2.0 fold
  Fold upregulation (Illumina array) Sdcbp: 2.2 fold
[7]; 24 hours
  Grn mRNA expression: upregulate
  Hspa1b (Hsp70) mRNA expression: upregulated
  Mapt mRNA expression: downregulated
[7]; 24 hours, Bdnf transcript IV
  Bdnf mRNA expression: upregulated
[7]; 24 hrs, normalized to Gapdh
  Fold upregulation (RT-PCR) Aldh2: 2.3 fold
  Fold upregulation (RT-PCR) Egr1: 3.9 fold
  Fold upregulation (RT-PCR) Pik3c3: 2.2 fold
  Fold upregulation (RT-PCR) Sdcbp: 2.3 fold
[8]
  regulation of Homer1 expression together with BDNF stimulation: synergistic
[9]
  increase in dendritic synapsin I punctae density: ~2 fold
  synapsin I punctae size or staining intensity: did not alter
  total dendrite length per image: did not alter
[10]
  toxicity in neuronal cultures: no detectable toxicity
[11]
  histone acetylation (AcH4K12) in cultures on glass coverslips: robust increase
Recombinant HDAC1 [12]
  potency relative to SAHA for inhibition of class I HDACs 1-3: approximately 10 fold
Recombinant HDAC1 [13]
  IC50: 0.7 ± 0.04 nM
Recombinant HDAC2
  IC50: 1 ± 0.08 nM
Recombinant HDAC3
  IC50: 2 ± 0.3 nM
Recombinant HDAC4
  IC50: > 2000 nM
Recombinant HDAC5
  IC50: > 2000 nM
Recombinant HDAC7
  IC50: > 2000 nM
Recombinant HDAC9
  IC50: > 2000 nM
Recombinant HDAC6
  IC50: 9.3 ± 0.6 nM
[14]
  potency relative to SAHA at inducing histone acetylation in neurons: ~ 6 fold

## O=C(CCCCCCC(=O)Nc1ccccc1)NO [SAHA, suberoylanilide hydroxamic acid, reference compound]
[5]
  Egr1-EGFP reporter gene activity: induced
Grn (granulin)
  expression of Grn (granulin) in cell lines: upregulate

## C=C[C@@]1(C)CC(=O)[C@]2(O)[C@@]3(C)[C@@H](O)CCC(C)(C)[C@@H]3[C@H](O)[C@H](OC(C)=O)[C@@]2(C)O1 [forskolin]
[1]; 10 μM, 4 hours, PC12 cells
  induction of the CREB reporter gene: ~ 4 fold
